Experimental findings from paper PMC6433685, “Histone deacetylase inhibitor LMK235 attenuates vascular constriction and aortic remodelling in hypertension” (Journal of Cellular and Molecular Medicine, 2019) are described below.

Usually IC50 stands for the concentration that gives 50% inhibition.

In one data set the target is T1, HDAC4 (Homo sapiens, UniProt P56524).
T1 construct: purchased BPS Bioscience 50064
Description: HDAC4 fluorogenic enzyme assay kit (BPS Bioscience), cell-free. The class given is biochemical. The note with it: 0.001-10 μmol/L inhibitor.

A further data set addresses T2, HDAC5 (Homo sapiens, UniProt Q9UQL6).
T2 construct: purchased BPS Bioscience 50065
Description: HDAC5 fluorogenic enzyme assay kit (BPS Bioscience), cell-free. The data set is classed as biochemical. The note with it: 0.001-10 μmol/L inhibitor. The procedure: Enzyme activity measurements of class I and IIa HDACs were performed using a cell‐free system and according to a method previously described.16 We used fluorogenic HDAC1 (#50061), HDAC2 (#50062), HDAC3 (#50063), HDAC4 (#50064), HDAC5 (#50065), HDAC6 (#50076), HDAC7 (#50067), HDAC8 (#50068) and HDAC9 (#50069) enzyme assay kits from BPS Bioscience (San Diego, CA, USA). To test the enzyme activity of LMK235, 0.001, 0.003, 0.01, 0.03, 0.1, 0.3, 1, 3 and 10 μmol/L concentrations were used. For the IC50 calculations, every data point was normalized to the vehicle (100% activity). The normalized data were fitted with a Hill non‐linear curve fit (OrigionPro 9.0).

Another data set addresses T3, HDAC8 (Homo sapiens, UniProt Q9BY41).
T3 construct: purchased BPS Bioscience 50068
Description: HDAC8 fluorogenic enzyme assay kit (BPS Bioscience), cell-free. The class given is biochemical. To be noted: 0.001-10 μmol/L inhibitor.

The subject of data set [1] is angiotensin II‐induced hypertensive mice. The experiment in a line: Systolic BP (tail-cuff) in angiotensin II-infusion mice. The data set is classed as in vivo, CD‐1 mice. To be noted: Ang II-infusion mice; 1 mg/kg/day i.p. for 7 days. The procedure: (§1) All animal procedures were approved by the Animal Experimental Committee of Chonnam National University Medical School (CNU IACUC‐H‐2014‐47) and carried out in accordance with the Guide for the Care and Use of Laboratory Animals (US National Institutes of Health Publications, 8th edition, 2011). CD‐1 mice (8 weeks old, 30‐35 g) were used in this study. Hypertension was induced by angiotensin II (Ang II, 1.3 mg/kg/day) infusion using 14‐day micro‐osmotic pumps (Alzet, model 1002; infusion rate of 0.25 μL/h) or saline alone. Ang II osmotic pumps were implanted subcutaneously after the injection of ketamine (120 mg/kg) and xylazine (6.2 mg/kg). One week after Ang II infusion, mice were administered LMK235 (1 or 3 mg/kg/day) or vehicle (dimethylsulphoxide [DMSO]) via intraperitoneal injection for 7 days. Mice were divided into three groups (n = 10‐12 per group): sham + vehicle, Ang II + vehicle, and Ang II + LMK235.
Systolic BP was measured by the tail‐cuff method (Visitech Systems, BP‐2000). Animals (mice and rats) were trained to allow for the measuring of BP before administration of the drug. Animals were trained to enter the holder at the same time more than three times a week to measure BP. For angiotensin II‐mice, systolic BP was measured when the mice were awake the day before they are killed. For SHRs, systolic BP was measured daily for 2 weeks.

A further data set deals with AT1 and ACE1 mRNA. Description: AT1 and ACE1 mRNA (qRT-PCR) in aortas of angiotensin II-infusion mice. The class given is in vivo. The procedure: as §1
(§2) Total RNA from aortic tissue was isolated with TRIzol reagent (Invitrogen Life Technologies), and 1 μg of RNA was used for the reverse transcription reaction with TOPscript RT DryMIX (Enzynomics, South Korea). Quantification of mRNA levels was performed with the SYBR Green PCR kit (Enzynomics, South Korea).

A further data set relates to HUVECs. The experiment in a line: Nitric oxide production in HUVECs (DAF-FM DA fluorescence). The data set is classed as cell-based, Human. The note with it: 1 μmol/L, 24 h. As to the method: (§3) A10 vascular smooth muscle cells (VSMCs) were incubated with Dulbecco's modified Eagle medium (DMEM) with 4500 mg/L glucose containing 10% foetal bovine serum (FBS). Passages were carried out every 2 or 3 days. VSMCs were maintained in DMEM in the presence of 10% FBS with low glucose (1000 mg/L). Human umbilical vein endothelial cells (HUVECs) were obtained from Gibco (Waltham, MA, USA). HUVECs were grown in an endothelial cell basal medium (EBM) with EGM‐2 bullet kit (Lonza, Walkersville, MD) and maintained at 37°C under 5% CO2. Cells were cultured for 5‐7 passages.
We used a nitric oxide‐sensitive fluorescence probe, 4‐amino‐5‐methylamino‐2′,7′‐difluorescein diacetate (DAF‐FM DA, Cayman), for nitric oxide detection. HUVECs were seeded on coverslips in 12‐well plates (1.5 × 10^5/mL). Cells, serum‐starved with EBM for 16 hour, were treated with LMK235 (1 μmol/L) or L‐NAME (250 μmol/L) for 24 hour and incubated with DAF‐FM DA (2.5 μmol/L) for 45 minutes. Next, the cells were fixed with 70% ethanol for 45 minutes and mounted using Prolog Gold antifade reagent and DAPI (Invitrogen, USA).

The test system of data set [2] is angiotensin II‐infusion mice. Description: Aortic wall thickness (H&E) in angiotensin II-infusion mice. The data set is classed as in vivo. The note with it: Ang II-infusion mice; 3 mg/kg/day for 1 week. The procedure: as §1
The paraffin‐embedded tissues were cut into 3‐μm‐thick sections, deparaffinized with xylene and then rehydrated with graded alcohol. Haematoxylin and eosin (H&E) staining was performed as described, with slight modifications.15 The arterial wall thickness was measured using NIS Elements Software (Nikon, Japan).

A further data set relates to SHR aortas. Description: Aortic wall thickness (H&E) in SHRs. The class given is in vivo, rats. The source says: For the essential hypertension animal experiment, SHRs were used. The SHR is the most used model animal model for hypertension and is generally regarded as an essential hypertension model.13 SHRs (6 weeks old, approximately 170 g) were purchased from Charles River (Yokohama, Japan). Rats were intraperitoneally administered LMK235 or vehicle every 3 days for 2 weeks (n = 4 per group). The paraffin‐embedded tissues were cut into 3‐μm‐thick sections, deparaffinized with xylene and then rehydrated with graded alcohol. Haematoxylin and eosin (H&E) staining was performed as described, with slight modifications.15 The arterial wall thickness was measured using NIS Elements Software (Nikon, Japan).

In data set [3] the test system is A10 cells. Description: MTT cell viability assay in A10 cells. To be noted: up to 1000 nmol/L, 24 hours. The class given is cell-based, rat. The procedure:
as §3
Cell viability was tested by the MTT [3‐(4,5‐dimethylthiazol‐2‐yl)‐2,5‐diphenyl tetrazolium bromide] assay. A10 cells were seed into 24‐well culture dishes and serum‐starved overnight. Cells were treated with LMK235 or vehicle for 24 hours at the indicated concentrations. MTT reagent was added to the medium for 2 hours and then dissolved in DMSO, and the absorbance was measured at 570 nm. For assessing cell proliferation, A10 cells were transfected with pCMV‐SPORT6‐CaMKIIα in a dose‐dependent manner. The MTT assay was performed as described above.
(In general: Formazan colour is commonly taken as a measure of viable cells.)

In data set [4] the test system is A10 cells. Description: qRT-PCR in CaMKIIα-transfected A10 cells. The class given is cell-based, rat. As to the method:
A10 cells were seeded into 12‐well dishes. A10 cells were transfected with the indicated concentrations of pCMV‐SPORT6‐CaMKIIα. After 24 hours of transfection, total RNA was extracted and quantitative real time polymerase chain reaction (qRT‐PCR) was performed. For knockdown of HDAC5, rat HDAC5 siRNA or sicontrol was used in A10 cells using RNAiMAX reagent according to the manufacturer's guidelines. A concentration of 100 nmol/L of siRNA was used.
as §2
For orientation: Real-time PCR tracks product formation cycle by cycle.

T2 sequence (Q9UQL6 whole entry): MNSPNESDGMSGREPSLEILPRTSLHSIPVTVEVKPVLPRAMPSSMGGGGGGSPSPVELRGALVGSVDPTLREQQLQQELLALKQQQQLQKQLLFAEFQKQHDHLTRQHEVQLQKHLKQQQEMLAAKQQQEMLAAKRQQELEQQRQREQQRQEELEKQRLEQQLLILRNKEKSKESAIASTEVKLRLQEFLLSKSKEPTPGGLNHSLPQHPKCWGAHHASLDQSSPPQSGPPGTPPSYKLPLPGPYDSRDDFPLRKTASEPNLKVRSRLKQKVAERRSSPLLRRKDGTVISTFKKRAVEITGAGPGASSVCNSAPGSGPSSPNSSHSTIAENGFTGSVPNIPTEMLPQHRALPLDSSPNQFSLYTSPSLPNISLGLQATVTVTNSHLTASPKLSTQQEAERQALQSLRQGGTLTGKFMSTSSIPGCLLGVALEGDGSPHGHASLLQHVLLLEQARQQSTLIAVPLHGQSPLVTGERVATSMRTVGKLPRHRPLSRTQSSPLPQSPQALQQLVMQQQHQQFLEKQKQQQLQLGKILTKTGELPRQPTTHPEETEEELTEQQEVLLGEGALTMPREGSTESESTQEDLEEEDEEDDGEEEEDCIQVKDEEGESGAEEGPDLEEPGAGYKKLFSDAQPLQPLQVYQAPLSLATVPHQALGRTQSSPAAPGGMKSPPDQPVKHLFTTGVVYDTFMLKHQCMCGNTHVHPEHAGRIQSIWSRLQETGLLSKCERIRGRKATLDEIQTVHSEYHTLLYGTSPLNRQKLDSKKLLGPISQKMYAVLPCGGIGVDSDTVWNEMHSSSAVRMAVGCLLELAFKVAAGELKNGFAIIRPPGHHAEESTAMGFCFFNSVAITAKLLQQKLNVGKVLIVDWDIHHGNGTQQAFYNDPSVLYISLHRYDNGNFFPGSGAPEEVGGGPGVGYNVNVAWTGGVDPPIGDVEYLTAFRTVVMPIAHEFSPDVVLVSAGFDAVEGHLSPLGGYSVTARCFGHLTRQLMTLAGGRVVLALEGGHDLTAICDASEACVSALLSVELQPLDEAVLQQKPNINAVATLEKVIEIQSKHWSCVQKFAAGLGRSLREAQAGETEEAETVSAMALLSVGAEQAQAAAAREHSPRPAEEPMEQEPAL
T1 sequence (P56524 whole entry): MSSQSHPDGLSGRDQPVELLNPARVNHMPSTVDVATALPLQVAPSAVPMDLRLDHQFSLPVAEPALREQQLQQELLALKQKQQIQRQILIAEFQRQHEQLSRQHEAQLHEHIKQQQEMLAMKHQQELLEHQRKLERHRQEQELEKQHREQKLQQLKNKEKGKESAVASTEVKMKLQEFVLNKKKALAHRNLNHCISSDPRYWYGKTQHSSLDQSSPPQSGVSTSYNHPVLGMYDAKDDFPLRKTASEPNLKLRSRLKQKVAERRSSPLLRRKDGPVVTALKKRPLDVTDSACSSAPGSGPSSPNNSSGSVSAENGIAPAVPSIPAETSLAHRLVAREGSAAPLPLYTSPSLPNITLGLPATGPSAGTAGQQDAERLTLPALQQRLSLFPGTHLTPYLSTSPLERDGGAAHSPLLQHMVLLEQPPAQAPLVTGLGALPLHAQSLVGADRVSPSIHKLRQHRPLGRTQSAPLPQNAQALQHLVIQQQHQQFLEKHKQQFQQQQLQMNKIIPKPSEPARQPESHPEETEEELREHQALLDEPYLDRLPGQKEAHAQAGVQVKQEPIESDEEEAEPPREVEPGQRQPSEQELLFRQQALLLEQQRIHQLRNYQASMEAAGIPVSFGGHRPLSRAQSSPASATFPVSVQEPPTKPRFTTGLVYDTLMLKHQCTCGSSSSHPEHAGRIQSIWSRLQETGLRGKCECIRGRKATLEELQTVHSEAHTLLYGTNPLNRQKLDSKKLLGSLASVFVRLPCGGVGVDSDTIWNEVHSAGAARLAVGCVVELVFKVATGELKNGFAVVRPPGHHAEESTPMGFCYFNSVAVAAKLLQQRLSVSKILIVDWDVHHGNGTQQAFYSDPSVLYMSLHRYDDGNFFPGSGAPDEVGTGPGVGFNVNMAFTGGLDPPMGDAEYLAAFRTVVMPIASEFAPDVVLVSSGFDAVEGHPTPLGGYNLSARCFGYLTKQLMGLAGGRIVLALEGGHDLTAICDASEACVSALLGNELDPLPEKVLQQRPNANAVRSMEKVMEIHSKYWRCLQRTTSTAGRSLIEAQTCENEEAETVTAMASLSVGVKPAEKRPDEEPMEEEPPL
T3 sequence (Q9BY41 whole entry): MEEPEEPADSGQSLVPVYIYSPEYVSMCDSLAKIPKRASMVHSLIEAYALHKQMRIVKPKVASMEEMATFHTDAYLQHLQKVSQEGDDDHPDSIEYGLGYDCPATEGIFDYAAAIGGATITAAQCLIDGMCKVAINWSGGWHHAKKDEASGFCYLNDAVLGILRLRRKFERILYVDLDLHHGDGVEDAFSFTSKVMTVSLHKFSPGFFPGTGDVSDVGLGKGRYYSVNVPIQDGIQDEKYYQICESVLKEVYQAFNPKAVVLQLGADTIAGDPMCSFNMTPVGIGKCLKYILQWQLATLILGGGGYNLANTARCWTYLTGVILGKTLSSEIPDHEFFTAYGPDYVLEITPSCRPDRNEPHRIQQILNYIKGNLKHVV

As to `Cc1cc(C)cc(C(=O)NOCCCCCC(=O)NO)c1` [LMK235], the IC50 was > 20 µM against HDAC4, > 20 µM at HDAC5 and 1120 nM against HDAC8. In addition, the “systolic BP” value in data set [1] is listed as “sufficient to lower systolic BP”. Further, the “AT1 transcript levels in aorta” value in the data set with AT1 and ACE1 mRNA (Ang II-infusion mice) is “not reduced”. In addition, in the data set with AT1 and ACE1 mRNA (either hypertension model (Ang II mice and SHRs)), the “aortic ACE1 or AT1 expression” value is on record as “did not affect”. In the data set on HUVECs, the nitric oxide production result was “increased nitric oxide production”. Further, the aortic wall thickness entry in data set [2] is “completely inhibited the increased aortic wall thickness”; in the data set with SHR aortas it was “reduced”. Besides, in the data set with A10 cells [3], the “cell viability (MTT)” value was “not affected”. Besides, the “cyclin D1 mRNA levels induced by overexpression of CaMKIIα” value in the data set on A10 cells [4] (A10 cells, 1 μmol/L, 24 h) is recorded as “reduced”. In addition, the “mRNA levels of overexpressed CaMKIIα” value in the data set on A10 cells [4] (A10 cells, 1000 nmol/L, 24 hours) is given as “did not change”. Further, in the data set on A10 cells [4] (CaMKIIα-transfected A10 cells, 1 μmol/L, 24 h), the “mRNA expression of HDAC1, 2, 3, 4, 5, 7” value is on record as “significantly reduced”.
